According to US5270325A, “P-hydroxy phenone derivatives used in the treatment of cardiac arrhythmia” (BASF Aktiengesellschaft, priority 1988, dated 1993):

Key:
[1] = tested on: QT interval; assay: Class III antiarrhythmic action in guinea-pigs after intravenous administration (increase in the QT interval, ECG); format: in vivo, Pirbright white guinea-pigs; conditions: Cavia porcellus, anesthetized (urethane) guinea-pigs, ED 20% from linear relation between log dose and relative increase in the QT interval
Protocol: The experimental animals are male and female Pirbright white guinea-pigs weighing from 300 to 500 g. They are anesthetized with 1.5 g/kg urethane i.p. The substances are administered intravenously. The ECG conduction times and the heart rate are measured from a recording from extremity lead II. The measured variables are the QT and PQ intervals and the heart rate. 4 to 6 animals are used per dose. The criterion of a class III action is an increase in the QT interval compared with the values before administration of the substance. An increase in PQ and a large decrease in the heart rate serve as exclusion criteria. The ED 20% is calculated from the linear relation between log dose (mg/kg) of the substance and the relative increase in the QT interval (in %).

[2] = tested on: arrhythmias; conditions: literature: Circulation 68 (1983) 88-94; Am. Heart J. 109 (1985) 949-958; J. Clin. Pharmacol. 27 (1987) 708; cited from earlier work

| Compound | ED (20%) [1] [mg/kg] | acting against arrhythmias which are otherwise resistant to therapy [2] |
| --- | --- | --- |
| Cc1ccsc1/C=C/C(=O)c1cc(C)c(OCCN2CCCC2)c(C)c1.O=C(O)/C=C/C(=O)O [Example 4, 3,5-Dimethyl-4-[2-(1-pyrrolidinyl)ethoxy]phenyl E-2-(3-methyl-2-thienyl)ethenyl ketone fumarate] | 1.2 |  |
| CC(C)NCC(O)c1ccc(NS(C)(=O)=O)cc1 (single isomer, unassigned) [D-Sotalol] | 3.6 | acting against arrhythmias which are otherwise resistant to therapy, especially reentry arrhythmias |
| Cc1cc(C(=O)/C=C/c2ccccc2C(F)(F)F)cc(C)c1OCCN1CCCC1.O=C(O)/C=C/C(=O)O [Example 5, 3',5'-Dimethyl-4'-[2-(1-pyrrolidinyl)ethoxy]-2-trifluoromethylchalcone fumarate] | 1 |  |
| Cc1cc(C(=O)/C=C/c2cccn2C)cc(C)c1OCCN1CCCC1.O=C(O)/C=C/C(=O)O [Example 2, 3,5-Dimethyl-4-[2-(1-pyrrolidinyl)ethoxy]phenyl E-2-(1-methyl-2-pyrrolyl)ethenyl ketone fumarate] | 1.1 |  |
| CCCCc1oc2ccccc2c1C(=O)c1cc(I)c(OCCN(CC)CC)c(I)c1 [amiodarone] |  | acting against arrhythmias which are otherwise resistant to therapy, especially reentry arrhythmias |
